Reference: patent publication US20210214354A1, “IMIDAZOQUINOLINE COMPOUNDS AND USES THEREOF” (Birdie Biopharmaceuticals, Inc., priority 2018, published 2021)
Read-outs that look alike come from different tables or passages of the source.

Tests used:
[1] = TLR7/8 agonist PK study in SD rats (i.v.); conditions: 0.08 mg/kg, plasma; for MTRinf: SD rats, i.v.; for AUC(0-inf) / AUC(0-t) / C0 / MRT last / Vd / clearance / half-life: both, Sprague-Dawley (SD), rat, iv
Experimental: (§3) SPF SD rats were purchased from BioLASCO Taiwan Co. Ltd. Animals were randomly assigned to five groups with 3 males and 3 females in each group before dosing. The body weight variation of animals used were in an interval within ±20 percent of the mean weight for each gender.
(§4) Blood samples (200-350 μL/time point) were obtained through tail vein at pre-dose and 2 min, 5 min, 15 min, 30 min, 1 hr, 2 hr, 4 hr, 6 hr, 8 hr, 12 hr and 24 hr post dosing. The blood samples were collected into tubes containing K2EDTA and maintained on ice no more than 30 minutes, then centrifuged (1500-1750 xg, 15 min, 2-8° C.) for plasma harvest.
(§5) The study samples were prepared and analyzed in parallel using liquid chromatography-tandem mass spectrometry. In pharmacokinetics evaluation following the determined concentrations in rat plasma, pharmacokinetic parameters were calculated using WinNonlin (Pharsight Corporation, version 6.3) with non-compartmental methods.

hTLR7 = molecular target: T1, hTLR7 (Homo sapiens, UniProt Q9NYK1); experiment: TLR7/8 agonist potency assay in HEK-Blue hTLR7 cells (SEAP reporter); assay type: cell-based; conditions: about 16 hrs incubation, SEAP at 635 nm; for EC50: read-out: TLR7 Agonistic EC50 (converted)
T1 construct: expressed in transfected cells; host or cells: HEK-Blue hTLR7 cells (HEK293-derived SEAP reporter line; own knowledge: commercial line stably transfected with the human TLR7 gene)
T1 sequence (Q9NYK1 27-1049): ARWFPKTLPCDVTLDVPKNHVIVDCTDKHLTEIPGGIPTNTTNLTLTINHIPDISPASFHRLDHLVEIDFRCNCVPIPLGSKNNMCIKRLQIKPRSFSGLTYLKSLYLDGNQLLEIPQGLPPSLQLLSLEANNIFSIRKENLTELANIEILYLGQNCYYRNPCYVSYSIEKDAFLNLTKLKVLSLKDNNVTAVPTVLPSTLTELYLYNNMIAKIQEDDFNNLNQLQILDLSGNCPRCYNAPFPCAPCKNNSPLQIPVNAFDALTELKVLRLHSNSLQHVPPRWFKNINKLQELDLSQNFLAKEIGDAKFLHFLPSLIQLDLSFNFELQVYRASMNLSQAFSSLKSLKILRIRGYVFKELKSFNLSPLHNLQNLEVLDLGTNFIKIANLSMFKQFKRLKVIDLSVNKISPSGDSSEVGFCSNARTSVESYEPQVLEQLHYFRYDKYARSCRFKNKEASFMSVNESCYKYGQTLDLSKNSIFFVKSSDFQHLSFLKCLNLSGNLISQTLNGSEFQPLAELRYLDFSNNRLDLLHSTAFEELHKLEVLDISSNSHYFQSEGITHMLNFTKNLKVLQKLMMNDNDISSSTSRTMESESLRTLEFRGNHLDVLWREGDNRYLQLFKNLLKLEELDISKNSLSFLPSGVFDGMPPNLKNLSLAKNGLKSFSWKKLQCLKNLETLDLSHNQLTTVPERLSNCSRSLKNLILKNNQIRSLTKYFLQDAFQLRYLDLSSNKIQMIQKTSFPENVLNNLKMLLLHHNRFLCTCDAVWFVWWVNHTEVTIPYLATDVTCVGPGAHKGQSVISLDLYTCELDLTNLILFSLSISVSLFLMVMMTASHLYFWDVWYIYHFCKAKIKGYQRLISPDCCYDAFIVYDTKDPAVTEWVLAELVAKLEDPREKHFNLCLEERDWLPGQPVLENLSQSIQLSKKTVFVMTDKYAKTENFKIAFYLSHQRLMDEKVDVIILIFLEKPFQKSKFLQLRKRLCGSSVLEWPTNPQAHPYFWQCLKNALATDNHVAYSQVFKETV
Experimental: (§1) HEK-Blue TLR7 cells can serve to measure the bioactivity of TLR7 through the secretion of embryonic alkalinephosphatase (SEAP) upon NF-κB activation following TLR7 stimulation. Water was used as negative control. After about 16 hrs incubation at 37° C. in 5% CO2, the SEAP was determined by using a spectrophotometer at 635 nm.
(§2) The dose-response curves were fit with four parameter logistic curve (SigmaPlot, version 9.0).

hTLR8 = molecular target: T2, hTLR8 (Homo sapiens, UniProt Q9NR97); experiment: TLR7/8 agonist potency assay in HEK-Blue hTLR8 cells (SEAP reporter); assay type: cell-based; conditions: about 16 hrs incubation, SEAP at 635 nm, read-out: TLR8 Agonistic EC50 (converted)
T2 construct: expressed in transfected cells; host or cells: HEK-Blue hTLR8 cells (HEK293-derived SEAP reporter line; own knowledge: commercial line stably transfected with the human TLR8 gene)
T2 sequence (Q9NR97 27-1041): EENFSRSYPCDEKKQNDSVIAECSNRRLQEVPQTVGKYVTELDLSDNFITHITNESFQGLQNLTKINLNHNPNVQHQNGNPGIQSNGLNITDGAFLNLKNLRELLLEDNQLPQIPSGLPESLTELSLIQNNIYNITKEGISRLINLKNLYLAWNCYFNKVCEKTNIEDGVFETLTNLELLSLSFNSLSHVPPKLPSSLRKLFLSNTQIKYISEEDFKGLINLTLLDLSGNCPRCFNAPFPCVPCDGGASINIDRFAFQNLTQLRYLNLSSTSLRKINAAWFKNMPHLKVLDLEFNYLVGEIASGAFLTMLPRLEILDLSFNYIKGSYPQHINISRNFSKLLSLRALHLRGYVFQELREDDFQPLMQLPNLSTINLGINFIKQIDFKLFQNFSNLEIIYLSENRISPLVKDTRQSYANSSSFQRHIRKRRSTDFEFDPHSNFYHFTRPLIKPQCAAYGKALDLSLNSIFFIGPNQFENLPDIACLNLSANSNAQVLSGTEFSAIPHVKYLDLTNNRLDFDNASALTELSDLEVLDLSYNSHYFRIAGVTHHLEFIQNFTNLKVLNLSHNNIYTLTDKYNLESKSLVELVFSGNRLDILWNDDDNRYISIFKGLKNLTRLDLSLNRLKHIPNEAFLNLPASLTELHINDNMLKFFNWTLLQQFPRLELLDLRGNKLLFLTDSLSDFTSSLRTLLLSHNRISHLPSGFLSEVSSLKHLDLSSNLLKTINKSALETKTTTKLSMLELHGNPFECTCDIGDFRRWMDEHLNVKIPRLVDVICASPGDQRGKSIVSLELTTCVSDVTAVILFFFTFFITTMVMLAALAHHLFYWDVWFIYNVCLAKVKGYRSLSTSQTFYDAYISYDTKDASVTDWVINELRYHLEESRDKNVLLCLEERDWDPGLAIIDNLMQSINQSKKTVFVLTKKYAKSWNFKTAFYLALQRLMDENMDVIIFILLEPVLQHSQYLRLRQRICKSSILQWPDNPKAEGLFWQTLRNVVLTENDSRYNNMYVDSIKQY
Experimental: as §1, with “HEK-Blue hTLR8” for “HEK-Blue TLR7”, “of TLR8” for “of TLR7”, “embryonic alkaline phosphatase” for “embryonic alkalinephosphatase”, “following TLR8” for “following TLR7”
as §2

[2] = both, Sprague-Dawley (SD), rat, in vivo, iv, 0.08 mg/kg
Experimental: as §3, §4, §5

in vivo = conditions: both, Sprague-Dawley (SD), rat, iv, 0.08 mg/kg
Experimental: as §3, §4, §5

MTRinf [1]	AUC(0-inf) [1]	AUC(0-t) [1]	C0 [1]	MRT last [1]	Vd [1]	clearance [1]	half-life [1]	EC50 (hTLR7)	EC50 (hTLR8)	SMILES	also measured
3.87 ± 1.20 h	66.2 ± 4.81 ng·h/mL	62.5 ± 4.49 ng·h/mL	258 ± 47.6 ng/mL	1.87 ± 0.16 h	4.67 L/kg	21.6 mL/min/kg	8.46 ± 1.72 h	–	–	CCSCc1nc2c(N)nc3ccccc3c2n1CC(C)(C)O [Compound 4]	–
1.71 ± 0.22 h	82.8 ± 8.29 ng·h/mL	81.6 ± 8.49 ng·h/mL	224 ± 53.9 ng/mL	1.28 ± 0.19 h	1.82 L/kg	17.1 mL/min/kg	6.46 ± 1.01 h	–	–	CCS(=O)(=O)Cc1nc2c(N)nc3ccccc3c2n1CC(C)(C)O [Compound 6]	–
–	–	–	–	–	–	–	–	–	–	CCCCNc1nc(N)c2[nH]c(=O)n(Cc3ccc(C(=O)NCC(=O)O)cc3)c2n1 [CL264, reference compound]	TLR7 Agonistic EC50 (hTLR7): 0.2602 ± 0.0124 µg/mL
4.90 ± 0.87 h	124 ± 9.96 ng·h/mL	118 ± 8.92 ng·h/mL	237 ± 44.2 ng/mL	3.15 ± 0.18 h	3.13 L/kg	11.9 mL/min/kg	7.53 ± 1.03 h	124 nM	1580 nM	CC(C)(O)Cn1c(COC2CC2)nc2c(N)nc3ccccc3c21 [Compound 3]	–
–	–	–	–	–	–	–	–	–	–	CCOCc1nc2c(N)nc3ccccc3c2n1CC(C)(C)O [Resiquimod]	MTRinf [2]: 3.87 ± 1.20 h; AUC(0-inf) (in vivo): 66.2 ± 4.81 ng·h/mL; AUC(0-t) (in vivo): 62.5 ± 4.49 ng·h/mL; C0 (in vivo): 258 ± 47.6 ng/mL; MRT last (in vivo): 1.87 ± 0.16 h; Vd (in vivo): 4.67 L/kg; clearance (in vivo): 21.6 mL/min/kg; half-life (in vivo): 8.46 ± 1.72 h
–	–	–	–	–	–	–	–	98.3 nM	1600 nM	CC(C)(O)Cn1c(COCC(F)(F)F)nc2c(N)nc3ccccc3c21 [Compound 2]	–
